Data published in patent US20090221666A1, “STILBENE DERIVATIVES AND METHODS OF INHIBITING CANCER CELL GROWTH AND MICROBIAL GROWTH” (priority 2005, published 2009).
In brackets after ≈: the same amount, converted by molar mass. Read-outs that look alike come from different tables or passages of the source.

What was measured:
[1] = system: human cancer cell lines and murine P388; assay: cells; format: cell-based; conditions: for IC50: Mus musculus
Description: (§1) Cytotoxicity assays were performed by the sulforhodamine B method, in which inhibition of formation of cellular protein is measured (Ref. 42). The mitotic index of MCF-7 breast cancer cells was determined as described previously (Ref. 27), except that cells were incubated in the presence of drug for 16 h prior to addition of the DNA stain.

[2] = system: Bovine brain tubulin (colchicine site); assay: Inhibition of [3H]colchicine binding to tubulin; conditions: 1.0 μM tubulin, 5.0 μM [3H]colchicine
Description: (§2) Bovine brain tubulin was prepared and the tubulin assembly and colchicine binding assays were performed as described previously. In the assembly assay, reaction mixtures contained 1.0 mg/mL (10 μM) tubulin and varying concentrations of potential inhibitors. In the colchicine binding assay reaction mixtures contained 0.1 mg/mL (1.0 μM) tubulin, 5.0 μM [^3H]colchicine, and potential inhibitor as indicated. The vinblastine binding assay was performed as described previously for GTP binding by centrifugal gel filtration, except that a Beckman Allegra 6KR centrifuge equipped with a GH-3.8A swinging bucket rotor was used and the syringe-columns were centrifuged at 2,000 rpm (Ref. 38-41). Reaction mixtures contained 0.5 mg/mL (5.0 μM) tubulin, 5 μM [^3H]vinblastine, potential inhibitor as indicated, 0.5 mM MgCl2, 0.1 M 4-morpholineethanesulfonate (1.0 M stock solution adjusted to pH 6.9 with NaOH, and 4% (v/v) dimethyl sulfoxide. Incubation (30 min) and centrifugal gel filtration were performed at room temperature (20-22° C.).

[3] = system: Bovine brain tubulin (vinca domain); assay: Inhibition of [3H]vinblastine binding to tubulin; conditions: 5.0 μM tubulin, 5 μM [3H]vinblastine
Description: as §2

[4] = Solubility in distilled water; format: physicochemical; conditions: for Solubility / solubility: 1 mL distilled water at 25° C.
[5] = system: P388 lymphocytic leukemia cell line; format: cell-based; conditions: murine P388 lymphocytic leukemia cell line
Description: as §1

BXPC-3 = assay: cells; format: cell-based, human; conditions: for GI50: Homo sapiens, read-out: Pancreas BXPC-3 GI50
Description: as §1

DU145 = assay: cells; format: cell-based, human; conditions: for GI50: Homo sapiens, DU-145, read-out: Prostate DU145 GI50
Description: as §1

KM20L2 = assay: cells; format: cell-based, human; conditions: for GI50: Homo sapiens, KM-20L2, read-out: Colon KM20L2 GI50
Description: as §1

MCF-7 = assay: cells; format: cell-based, human; conditions: for GI50: Homo sapiens, MCF7, read-out: Breast MCF-7 GI50
Description: as §1

NCI-H460 = assay: cells; format: cell-based, human; conditions: for GI50: Homo sapiens, read-out: Lung-NSC NCI-H460 GI50
Description: as §1

SF-295 = assay: cells; format: cell-based, human; conditions: for GI50: Homo sapiens, read-out: CNS SF-295 GI50
Description: as §1

[6] = system: Neisseria gonorrhoeae ATCC 49226; assay: Broth microdilution assay, Neisseria gonorrhoeae; format: cell-based
From the text: (§3) Compounds were screened in broth microdilution assays according to National Committee for Clinical Laboratory Standards (Ref. 43-44). Assays were repeated at least twice on separate days.

[7] = system: Enterococcus faecalis ATCC 29212; assay: Broth microdilution assay, Enterococcus faecalis; format: cell-based
From the text: as §3

[8] = system: Cryptococcus neoformans ATCC 90112; assay: Broth microdilution assay, Cryptococcus neoformans; format: cell-based; conditions: ATCC90112
From the text: as §3

[9] = P388, mean over the cell lines of Table 2, read-out: Mean

Compound | water solubility (in words) [4] | Leukemia P388 ED50 [5] | Prostate DU145 GI50 (DU145) | Colon KM20L2 GI50 (KM20L2) | Breast MCF-7 GI50 (MCF-7) | Lung-NSC NCI-H460 GI50 (NCI-H460) | CNS SF-295 GI50 (SF-295) | GI50 (BXPC-3) | GI50 (DU145) | GI50 (KM20L2) | GI50 (MCF-7) | GI50 (NCI-H460) | GI50 (SF-295) | IC50 [1, 9] | further results
COc1ccc(/C=C\c2cc(OC)c3c(c2)OCO3)cc1N [Compound 1a, 3,4-Methylenedioxy-5,4^1-Dimethoxy-3^1-Amino-Z-Stilbene, reference compound] | – | – | – | – | – | – | – | – | – | – | – | – | – | – | IC50 ([1]; P388, read-out: Mean): 0.013 µg/mL (≈ 0.0434 µM)
COc1ccc(C=Cc2cc(OC)c3c(c2)OCO3)cc1N [Compound 1b] | – | – | – | – | – | – | – | – | – | – | – | – | – | – | Inhibition of colchicine binding % Inhibition ± SD ([2]; 2 μM inhibitor): 85 ± 3%; Inhibition of vinblastine binding % Inhibition ± SD ([3]; 10 μM inhibitor): 0%; Inhibition of vinblastine binding % Inhibition ± SD ([3]; 80 μM inhibitor): 0%
COc1ccc(/C=C\c2cc(OC)c3c(c2)OCO3)cc1NC(=O)[C@@H](N)Cc1ccc(OP(=O)(O)O)cc1 [Compound 3a, 3,4-Methylenedioxy-5,4′-dimethoxy-3′-(O-phosphoryl-N^α-L-Tyr)-amido-Z-stilbene] | only sparing water solubility | >10 µg/mL | >1 µg/mL | >1 µg/mL | >1 µg/mL | >1 µg/mL | >1 µg/mL | – | – | – | – | – | – | – | Solubility [4]: <100 µg/mL; Pancreas BXPC-3 GI50 (BXPC-3): >1 µg/mL; MIC [6]: 0.125 µg/mL (≈ 0.23 µM); MIC [7]: 64 µg/mL (≈ 118 µM)
CC[C@H](C)[C@@H]([C@@H](CC(=O)N1CCC[C@H]1[C@H](OC)[C@@H](C)C(=O)N[C@@H](Cc1ccccc1)c1nccs1)OC)N(C)C(=O)[C@@H](NC(=O)[C@H](C(C)C)N(C)C)C(C)C [Compound 4a, Dolastatin 10] | – | – | – | – | – | – | – | – | – | – | – | – | – | – | Inhibition of colchicine binding % Inhibition ± SD ([2]; 2 μM inhibitor): 13 ± 5%; Inhibition of vinblastine binding % Inhibition ± SD ([3]; 10 μM inhibitor): 96 ± 0.7%
CC[C@H](C)[C@@H]([C@@H](CC(=O)N1CCC[C@H]1[C@H](OC)[C@@H](C)C(=O)O)OC)N(C)C(=O)[C@@H](NC(=O)[C@H](C(C)C)N(C)C)C(C)C [Compound 4b, Dov-Val-Dil-Dap] | – | – | – | – | – | – | – | – | – | – | – | – | – | – | Inhibition of colchicine binding % Inhibition ± SD ([2]; 50 μM inhibitor): 5.2 ± 3%; Inhibition of vinblastine binding % Inhibition ± SD ([3]; 10 μM inhibitor): 16 ± 6%; Inhibition of vinblastine binding % Inhibition ± SD ([3]; 80 μM inhibitor): 68 ± 0.4%
COc1ccc(/C=C\c2cc(OC)c3c(c2)OCO3)cc1NC(=O)[C@H](Cc1ccc(OP(=O)(OCc2ccccc2)OCc2ccccc2)cc1)NP(=O)(OCc1ccccc1)OCc1ccccc1 [Compound 5, 3,4-Methylenedioxy-5,4′-dimethoxy-3′-[O,N^α-di(bis-benzylphosphoryl)-L-Tyr]-amido-Z-stilbene] | – | >10 µg/mL | – | – | – | – | – | – | – | – | – | – | – | – | –
COc1ccc(/C=C\c2cc(OC)c3c(c2)OCO3)cc1NC(=O)[C@H](Cc1ccc(OC(C)(C)C)cc1)NC(=O)OCc1ccccc1 [Compound 7, 3,4-Methylenedioxy-5,4′-dimethoxy-3′-(O-tert-butyl-N^α-Z-L-Tyr)-amido-Z-stilbene] | – | 0.380 µg/mL | 0.39 µg/mL | 1.8 µg/mL | 0.36 µg/mL | 0.41 µg/mL | 0.44 µg/mL | – | – | – | – | – | – | – | Pancreas BXPC-3 GI50 (BXPC-3): 0.049 µg/mL; Mean ([1]; mean over the cell lines of Table 2): 0.61 µg/mL
COc1ccc(/C=C\c2cc(OC)c3c(c2)OCO3)cc1NC(=O)[C@H](Cc1ccc(OP(=O)(OCc2ccccc2)OCc2ccccc2)cc1)NC(=O)OCc1ccccc1 [Compound 8, 3,4-Methylenedioxy-5,4′-dimethoxy-3′-(O-bis-benzylphosphoryl-N^α-Z-L-Tyr)-amido-Z-stilbene] | – | 0.133 µg/mL | >10 µg/mL | >10 µg/mL | >10 µg/mL | >10 µg/mL | >10 µg/mL | – | – | – | – | – | – | – | Pancreas BXPC-3 GI50 (BXPC-3): >10 µg/mL; MIC [7]: 64 µg/mL (≈ 74.7 µM)
COc1ccc(/C=C\c2cc(OC)c3c(c2)OCO3)cc1NC(=O)[C@@H](N)Cc1ccc(O)cc1.Cl [Compound 9, 3,4-Methylenedioxy-5,4′-dimethoxy-3′-(N^α-L-Tyr)-amido-Z-stilbene hydrochloride] | only sparing water solubility | 0.0329 µg/mL | – | – | – | – | – | 0.064 µg/mL | 0.08 µg/mL | 0.034 µg/mL | 0.041 µg/mL | 0.096 µg/mL | 0.064 µg/mL | 0.059 µg/mL | solubility [4]: < 100 µg/mL; Solubility ([4]; hydrochloride): <100 µg/mL; inhibition of mini-panel of human cancer cell lines (in words) ([1]; mini-panel of human cancer cell lines): strongly inhibiting; melting point: 169 to 170.5 °C
COc1ccc(/C=C\c2cc(OC)c3c(c2)OCO3)cc1NC(=O)[C@H](CC(=O)OC(C)(C)C)NC(=O)OC(C)(C)C [Compound 10, 3,4-Methylenedioxy-5,4′-dimethoxy-3′-(O^β-tert-butyl-N^α-Boc-L-Asp)-amido-Z-stilbene] | – | 0.385 µg/mL | – | – | – | – | – | 3.4 µg/mL (≈ 5.96 µM) | 3 µg/mL (≈ 5.26 µM) | 2.3 µg/mL (≈ 4.03 µM) | 2.4 µg/mL (≈ 4.21 µM) | 3.8 µg/mL (≈ 6.66 µM) | 1.7 µg/mL (≈ 2.98 µM) | 2.4 µg/mL (≈ 4.21 µM) | –
COc1ccc(/C=C\c2cc(OC)c3c(c2)OCO3)cc1NC(=O)[C@@H](N)CC(=O)[O-].[Na+] [Compound 11, Sodium 3,4-methylenedioxy-5,4′-dimethoxy-3′-(N^α-L-Asp)-amido-Z-stilbene] | only sparing water solubility | 0.361 µg/mL | – | – | – | – | – | 0.38 µg/mL | 0.33 µg/mL | 0.19 µg/mL | 0.51 µg/mL | 0.3 µg/mL | 0.25 µg/mL | 0.33 µg/mL | Solubility [4]: <100 µg/mL; solubility [4]: < 100 µg/mL; melting point: 168 to 170 °C
COc1ccc(/C=C\c2cc(OC)c3c(c2)OCO3)cc1NC(=O)[C@H](C)[C@@H](OC)[C@@H]1CCCN1C(=O)OC(C)(C)C [Compound 13, 3,4-Methylenedioxy-5,4′-dimethoxy-3′-(N^α-Boc-L-Dap)-amido-Z-stilbene] | – | 0.225 µg/mL | – | – | – | – | – | 0.58 µg/mL (≈ 1.02 µM) | 0.38 µg/mL (≈ 0.668 µM) | 1.9 µg/mL (≈ 3.34 µM) | 0.53 µg/mL (≈ 0.932 µM) | 0.52 µg/mL (≈ 0.914 µM) | 0.75 µg/mL (≈ 1.32 µM) | 0.7 µg/mL (≈ 1.23 µM) | MIC [8]: 64 µg/mL (≈ 113 µM)
Sodium 3,4-methylenedioxy-5,4′-dimethoxy-3′-(L-Tyr)-amido-Z-stilbene 3′-O,N^α-diphosphate [Compound 6] | only sparing water solubility | 0.270 µg/mL | >1 µg/mL | >1 µg/mL | 1.3 µg/mL | >1 µg/mL | >1 µg/mL | – | – | – | – | – | – | – | Solubility [4]: <100 µg/mL; MIC [6]: 4 µg/mL
